Assays:
[1] = system: corpus cavernosal strips (CCS); assay: EFS-induced cGMP in CCS of ADA+ and ADA-/- mice; assay type: cell-based, mouse; conditions: EFS 5V 30 Hz, MRS1706 (10 nM), ZM241385 (50 nM), L-NAME (100 μM)
Method: FIG. 19. EFS leads to increased cAMP and cGMP production via A2BR in ADA-deficient mice. (a-b) Corpus cavernosal strips (CCS) of the ADA−/− and ADA+ mice were isolated and treated with 10 μM phenylephrine (PE) to induce precontraction. Then CCS were treated with MRS1706 (10 nM), ZM241385 (50 nM) or L-NAME (100 μM) prior to electrical field stimulation (EFS) at 5V and 30 Hz. 60 second after nerve stimulation, the CCS were quickly frozen and cellular cAMP (a) and cGMP (b) were measured by using commercial enzyme immunoassay kit (Amersham Pharmacia). N=4. Data are expressed as mean±SE. *p<0.05, ADA deficient mice versus the control; **p<0.05, CCS of ADA-deficient mice with MRS1706 and/or L-NAME treatment versus CCS of ADA-deficient mice without treatment; ***p<0.05, CCS of the control mice with MRS1706 and/or L-NAME treatment versus CCS of the control mice without treatment.
Function experiments. […] The contractility of each isolated corpus cavernosum smooth muscle cells (CCSM) strip was measured using an isometric force transducer (AD Instrument Inc., Georgia, Vt., USA). […] The contractile responses of the strips were analysed by adding 10 μM phenylephrine to the bath, and force changes were recorded in response to drug application and to electrical field stimulation. […]

[2] = system: corpus cavernosal smooth muscle cells (CCSM); assay: cAMP production in primary corpus cavernosal / penile vascular smooth muscle cells (CCSM, PVSM); assay type: cell-based, mouse; conditions: 10 min; for adenosine-mediated cAMP induction was blocked: CCSM, MRS1706 10 μM, ZM241385 50 nM
Method: PVSM were isolated and cultured from mouse penes. The cells were be switched to serum-free medium and treated with different concentrations of adenosine with or without A2B antagonist (MRS1706-1 μM) or A2A agonist (CGS-21680-1 μM) alone for 10 min. Then cellular extracts were collected and cAMP levels were measured using an ELISA kit. The data represent mean±SE.
Data are presented as mean±SE. *, p<0.01.
FIG. 18. Adenosine stimulated both cAMP and cGMP induction in corpus cavernosal smooth muscle cells (CCSM) via A2BR activation. (a) Adenosine receptor expression profile in purified primary CCSM. CCSM were purified from adult mouse penes. […] (b) CCSM were isolated and cultured from mouse penes. The cells were switched to serum-free medium and treated with different concentrations of adenosine with or without A2BR antagonist (MRS1706-10 μM), A2AR antagonist (ZM241385-50 nM) or A2AR agonist (CGS-21680-10 μM) alone for 10 min. Then cellular extracts were collected and cAMP levels were measured using an ELISA kit. The data represent mean±SE. *p<0.05, adenosine treated versus the untreated; **p<0.05, adenosine plus MRS1706 or ZM241385 versus the adenosine treated. (c) CCSM were isolated from penes of the wild type and A2BR-deficient mice and cultured with or without adenosine (100 μM), NECA (10 μM), a potent adenosine receptor agonist, forskolin (10 μM), an adenylyl cyclase agonist. After 10 min treatment, the cellular extracts were collected and cAMP levels were measured by using a commercial enzyme immunoassay kit (Amersham Pharmacia). N=4. *p<0.05, adenosine, forskolin and NECA treated versus the untreated control. (d) Corpus cavernosal strips (CCS) were isolated from wild type and A2BR-deficient mice and treated with different concentrations of adenosine in the presence or absence of L-NAME (100 μM) or MRS1706 (10 μM). 10 min after treatment, cellular extracts were collected and cGMP levels were measured by using a commercial enzyme immunoassay kit (Amersham Pharmacia). Data are expressed as mean±SE. *p<0.05, adenosine treated versus the control; **p<0.05, adenosine treated with MRS1706 versus the adenosine treated; ***p<0.05, CCS of A2BR-deficient mice treated with adenosine versus the CCS of wild type mice treated with adenosine. N=6-7. (e) CCSM were isolated from wild type and A2BR deficient mice and cultured with or without adenosine (100 μM), NECA (10 μM), a potent adenosine receptor agonist, forskolin (10 μM), an adenylyl cyclase agonist, or diethylamine-NONOate (DEA/NO) (10 μM). After 10 min treatment, the cellular extracts were collected and cAMP levels were measured by using a commercial enzyme immunoassay kit (Amersham Pharmacia). N=4. *p<0.05, DEA/NO treated versus to the untreated control. (f) Both cAMP and cGMP induction contribute to adenosine-mediated decreased PE-induced phosphorylation of myosin light chain (MLC). CCSM and CCS were isolated and cultured with the treatment of phenylephrine (PE-10 μM) in the presence or absence of adenosine (100 μM) or L-NAME (100 μM). 10 min after treatment, cellular extracts were isolated and western blot analysis were performed. The total MLC and phosphorylated MLC at S20 were detected by specific antibodies.
Isolation of primary corpus cavernosal smooth muscle cells (CCSM). Corpus cavernosum tissues were dissected as described above. Cavernosal tissue was washed in PBS and minced into […] pieces. Segments were incubated in 5-10 ml enzyme solutions containing 0.02% collagenase A (0.272 U/mg protein, Roche, Mannheim, Germany) and 0.5% elastase (3.73 U/mg protein, Cell system, St Katharinen, Germany) in a 75 mm flask at 37° C. for 6 hours. Enzymatic digestion was terminated by adding 10 ml DMEM supplemented with 10% fetal calf serum (FCS). […]

Nc1nc(NCCc2ccc(O)cc2)nc2nc(-c3ccco3)nn12 [ZM241385]
EFS-increased levels of cGMP were inhibited [1]: not
adenosine-mediated cAMP induction was blocked [2]: not

CCCn1c(=O)c2[nH]c(-c3ccc(OCC(=O)Nc4ccc(C(C)=O)cc4)cc3)nc2n(CCC)c1=O [MRS1706]
EFS-increased levels of cGMP were inhibited [1]: significantly inhibited
adenosine-mediated cAMP induction was blocked [2]: blocked

Nc1ncnc2c1ncn2[C@@H]1O[C@H](CO)[C@@H](O)[C@H]1O [adenosine]
cAMP production ([2]; CCSM/PVSM of A2BR deficient (A2B-/-) mice): failed to induce cAMP production
cAMP production ([2]; CCSM/PVSM of A2BR deficient (A2B-/-) mice, listed as Adenosine): essentially no effect on cAMP levels
cAMP production ([2]; wild type CCSM/PVSM, agent alone): induced cAMP
cAMP production ([2]; wild type CCSM/PVSM, agent alone, listed as Adenosine): elevate cAMP levels

Source: patent US20100254965A1, “Adenosine Signaling in Diagnosis, Treatment, and Prevention of Priapism and Erectile Dysfunction” (BOARD OF REGENTS ,THE UNIVERSITY OF TEXAS SYSTEM, priority 2006, published 2010)
